# Results as given in paper PMC13492380, “Dissecting Structural and Functional Determinants of Microtubules Stabilization through Guided Chemical Modulation” (Journal of Medicinal Chemistry, 2026).
# Read-outs that look alike come from different tables or passages of the source.
# What was measured:
# [1] = system: A549 cells; experiment: MTT cytotoxicity assay, A549; format: cell-based; details: Homo sapiens, read-out: Cytotoxicity IC50 A549
# Description: Antiproliferative assays were performed as described.
# [2] = system: Tau-mCherry (Tau 441 isoform) on stabilized MTs from porcine brain tubulin; experiment: Tau-mCherry binding to stabilized MTs (TIRF); format: biochemical; details: for initial Tau envelope coverage / Tau envelope growth velocity: 10 nM Tau-mCherry; for initial Tau envelope coverage: MTs polymerized in the presence of drug; for Tau-mCherry coating of stabilized MTs / Tau envelope coverage of MT length: 40 nM Tau-mCherry
# Source text: Previous studies in vitro have shown that Tau molecules strongly prefer compacted GDP lattices. Tau binds cooperatively to MT surfaces, resulting in a cohesive layer depending on tau-tau interactions, termed MT envelope, which selectively regulates access to MT lattices, and shields MTs from severing enzymes. − On expanded PTX-MTs, Tau envelope also forms and the lattice can get locally compacted. To further explore how MT lattice structure influences Tau binding, we employed an in vitro reconstitution assay. We deposited stabilized MTs in a flow chamber, and visualized them via interference reflection microscopy (Figure C). We then added 10 nM Tau-mCherry (labeled purified Tau 441 isoform at the C-terminus with mCherry) and monitored its association with MTs using time-lapse TIRF microscopy. After 4 min, we increased Tau concentration to 40 nM, and continued imaging for an additional 4 min. We measured fluorescence intensities along MTs to quantify Tau binding (Movies S16–S27). […] PTXpost-MTs also supported […] faster envelope growth (0.20 ± 0.02 μm/s versus 0.054 ± 0.006 μm/s for PTXpre-MTs, Figure H).
# Total Internal Reflection Fluorescence microscopy experiments were performed on an inverted widefield microscope Nikon-Ti2 E, equipped with a motorized XY-stage, a perfect focus system, Apo TIRF 60× oil NA 1.49 objective and PRIME BSY (Teledyne Photometrics) camera. MTs were visualized using Interference Reflection microscopy (IRM) and fluorescently labeled proteins were visualized sequentially by switching between microscope filter cubes for GFP and mCherry channels. The microscopes were controlled using NIS Elements software (Nikon). All experiments were conducted at RT.
# Microscopy chambers were prepared from two sandwiched silanized glass coverslips (22 × 22 mm^2 and 18 × 18 mm^2) attached through parafilm strips (heated for 15–20 s at 60 °C and gently pressed together) to form ∼2.5 mm wide parallel flow channels. Prior to the chamber assembly, the coverslips were washed in 3 M KOH, cleaned using Zepto plasma cleaner (Diener electronic) and silanized with hexamethyldisilazane. Flow channels were first incubated with 40 μgml^–1 antibiotin antibodies (Sigma, B3640) in PBS for 10 min, followed by incubation with 1% Pluronic F127 (Sigma-Aldrich, P2443) in PBS for at least 1 h. F127 was washed with BRB80 (80 mM PIPES, 1 mM EGTA, 1 mM MgCl2, pH 6.9).
# Porcine brain tubulin was isolated using the high-molarity PIPES procedure then mixed with Biotin labeled tubulin (Cytoskeleton Inc., T333P) in 1:49 ratio. All MTs were polymerized using 2% biotin-labeled tubulin. […] Polymerized MTs were centrifuged for 30 min at 18,000g in a Microfuge 18 Centrifuge (Beckman Coulter’s). […] Drug stabilized preassembly MTs (polymerized in the presence of drugs and GTP, stored and imaged in presence of drug) were polymerized from 4 mg mL^–1 biotinylated tubulin for 30 min at 37 °C in BRB80 supplemented with 4 mM MgCl2, 40 μM drug of interest in 5% DMSO, and 1 mM GTP. Polymerized MTs were centrifuged for 30 min at 18,000g in a Microfuge 18 Centrifuge (Beckman Coulter’s). […] GMPCPP stabilized MTs (GMPCPP polymerized) were assembled from 4 mg mL^–1 biotinylated tubulin for 2 h at 37 °C in BRB80 supplemented with 1 mM MgCl2 and 1 mM GMPCPP (Jena Bioscience, NU-405). Polymerized MTs were centrifuged for 30 min at 18,000g in a Microfuge 18 Centrifuge (Beckman Coulter’s) and pellets were resuspended and kept in BRB80.
# Stabilized MTs were flushed into the channel and incubated for 15–30 s to allow for surface attachment. Unbound MTs were removed by washing with BRB80 supplemented with 10 μM of drug. Prior the experiment, the solution was exchanged by motility buffer, MB (BRB80 containing 10 mM DTT, 20 mM D-glucose, 0.1% Tween-20, 0.5 mg/mL casein, 1 mM Mg-ATP, 0.02 mg/mL catalase, 0.22 mg/mL glucose oxidase, 10 μM drug). Subsequently, a solution containing either 1.08 nM Kif5b-EGFP or 10/40 nM mCherry-Tau in MB was introduced into the chamber. […]
# [3] = system: HeLaβIII cells (overexpressing βIII tubulin isotype); experiment: MTT cytotoxicity assay, HeLaβIII; details: for IC50: Homo sapiens, 48 h, read-out: Cytotoxicity IC50 HeLaβIII; for R/S (resistant to sensitive ratio): IC50 HeLaβIII / IC50 HeLa
# Description: Antiproliferative assays were performed as described. […] Then, increasing concentrations of drugs were added and incubated for 48 h prior to the reaction with the MTT solution. IC50 values were obtained by fitting the experimental data (absorbance at 570/690 nm) to a four-parameter logistic curve using SigmaPlot 14.5 software package (Systat Software, Inc., San Jose, CA, USA) and IC50 values were expressed as mean ± SEM from three independent experiments, each performed in duplicate.
# [4] = MTs polymerized in the presence of drug (preassembly)
# [5] = MTs stabilized with PTX after polymerization (PTXpost)
SMILES,"IC50 ([1]; A549, 48 h) [nM]",initial Tau envelope coverage [2] [%],"Tau envelope growth velocity [2, 4] [μm/s]",Tau-mCherry coating of stabilized MTs [2],IC50 [3] [nM],R/S (resistant to sensitive ratio) [3],"IC50 ([1]; A549, MTT, 48 h, mean ± SEM) [nM]","Tau envelope growth velocity [2, 5] [μm/s]",Tau envelope coverage of MT length ([2]; MTs assembled in the presence of PTX (PTXpre)) [%],"Tau envelope coverage of MT length [2, 5]"
"CC(=O)OC1C(=O)C2(C)C(OC(=O)CCCCC(=O)OC3CCc4ccccc43)CC3OCC3(OC(C)=O)C2C(OC(=O)c2ccccc2)C2(O)CC(OC(=O)C(O)C(NC(=O)c3ccccc3)c3ccccc3)C(C)=C1C2(C)C (stereo not drawn) [1a, 7-O-(6″-O-(2‴,3‴-Dihydroinden-1‴-yl)hexanedioyl) Paclitaxel]",510 ± 40,40,1.5 ± 0.1,fully coated,510 ± 80,3,,,,
"COc1ccc2c(c1)CC(NC(=O)CCCCCCCC(=O)OC1CC3OCC3(OC(C)=O)C3C(OC(=O)c4ccccc4)C4(O)CC(OC(=O)C(O)C(NC(=O)c5ccccc5)c5ccccc5)C(C)=C(C(OC(C)=O)C(=O)C13C)C4(C)C)CC2 [1b, 7-O-((S)-9″-(7‴-Methoxy-1‴,2‴,3‴,4‴-tetrahydronaphthalen-2‴-yl)amino) −9″-oxononanoyl) Paclitaxel]",,20,0.46 ± 0.05,fully coated,720 ± 80,7,220 ± 20,,,
"CC(=O)O[C@H]1C(=O)[C@]2(C)[C@@H](OC(=O)[C@H](C)NC(=O)c3ccc(-c4c5cc(F)c(=O)cc-5oc5cc(O)c(F)cc45)c(C(=O)O)c3)C[C@H]3OC[C@@]3(OC(C)=O)[C@H]2[C@H](OC(=O)c2ccccc2)[C@]2(O)C[C@H](OC(=O)[C@H](O)[C@@H](NC(=O)c3ccccc3)c3ccccc3)C(C)=C1C2(C)C [FTX2, Flutax2]",,60,1.37 ± 0.09,fully coated,,,,,,
"CC(=O)O[C@H]1C(=O)[C@@]2(C)[C@H]([C@H](OC(=O)c3ccccc3)[C@]3(O)C[C@H](OC(=O)[C@H](O)[C@@H](NC(=O)c4ccccc4)c4ccccc4)C(C)=C1C3(C)C)[C@]1(OC(C)=O)CO[C@@H]1C[C@@H]2O [PTX, Paclitaxel]",,,0.054 ± 0.006,,28.7 ± 0.7,,3.1 ± 0.7,0.20 ± 0.02,30,up to 60%
